Results reported in the supplement of paper PMC10307832.

How the values were obtained:
Assay in all cases: relative viability (nuclei count vs DMSO), 5 days (fraction); higher = more cells survive
[1] = compound: CN(C)CC1=CC(=CC=C1)N=C(C2=CC=CC=C2)C3=C(NC4=C3C=CC(=C4)C(=O)N(C)C)O + C[C@]1(O)C[C@@H](c2nc(-c3ccc4ccc(-c5ccccc5)nc4c3)c3c(N)nccn32)C1 [Linsitinib] (partner 1 µM)
How it was run: (§1)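 Cells from lung cancer lines were seeded into 1536-well plates and, one day later, dosed by pin tool. Treatments were either a single drug or a fixed dose of an anchor drug with five library-drug doses (not always all listed) in √10 steps. After 5 days, nuclei were stained in a one-step fixation (final 0.05% Triton X-100, 1% formaldehyde, 1 ug/ml Hoechst) and counted on 4× images, and relative viability is the treated-to-vehicle nuclei ratio, as the median of duplicate plates.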

[2] = compound: CN(C)CC1=CC(=CC=C1)N=C(C2=CC=CC=C2)C3=C(NC4=C3C=CC(=C4)C(=O)N(C)C)O + CS(=O)(=O)N1CCN(Cc2cc3nc(-c4cccc5[nH]ncc45)nc(N4CCOCC4)c3s2)CC1 [Pictilisib] (partner 1 µM)
How it was run: as §1

[3] = compound: CN(C)CC1=CC(=CC=C1)N=C(C2=CC=CC=C2)C3=C(NC4=C3C=CC(=C4)C(=O)N(C)C)O + COc1cc2c(Oc3ccc(NC(=O)C4(C(=O)Nc5ccc(F)cc5)CC4)cc3F)ccnc2cc1OCCCN1CCOCC1 [Foretinib] (partner 0.25 µM)
How it was run: as §1

[4] = compound: CN(C)CC1=CC(=CC=C1)N=C(C2=CC=CC=C2)C3=C(NC4=C3C=CC(=C4)C(=O)N(C)C)O + CC(C)C[C@H](NC(=O)[C@H](Cc1ccccc1)NC(=O)c1cnccn1)B(O)O [Bortezomib] (partner 0.002 µM)
How it was run: as §1

[5] = compound: CN(C)CC1=CC(=CC=C1)N=C(C2=CC=CC=C2)C3=C(NC4=C3C=CC(=C4)C(=O)N(C)C)O + CS(=O)(=O)CCNCc1ccc(-c2ccc3ncnc(Nc4ccc(OCc5cccc(F)c5)c(Cl)c4)c3c2)o1 [Lapatinib] (partner 2 µM)
How it was run: as §1

[6] = compound: CN(C)CC1=CC(=CC=C1)N=C(C2=CC=CC=C2)C3=C(NC4=C3C=CC(=C4)C(=O)N(C)C)O + Cc1nc(NC(=O)N2CCC[C@H]2C(N)=O)sc1-c1ccnc(C(C)(C)C(F)(F)F)c1 [Alpelisib] (partner 2 µM)
How it was run: as §1

[7] = compound: CN(C)CC1=CC(=CC=C1)N=C(C2=CC=CC=C2)C3=C(NC4=C3C=CC(=C4)C(=O)N(C)C)O + CC1(C)CCC(c2ccc(Cl)cc2)=C(CN2CCN(c3ccc(C(=O)NS(=O)(=O)c4ccc(N[C@H](CCN5CCOCC5)CSc5ccccc5)c(S(=O)(=O)C(F)(F)F)c4)cc3)CC2)C1 [Navitoclax] (partner 0.5 µM)
How it was run: as §1

[8] = compound: CN(C)CC1=CC(=CC=C1)N=C(C2=CC=CC=C2)C3=C(NC4=C3C=CC(=C4)C(=O)N(C)C)O + C[C@@H](Oc1cc(-c2cnn(C3CCNCC3)c2)cnc1N)c1c(Cl)ccc(F)c1Cl [Crizotinib] (partner 1 µM)
How it was run: as §1

[9] = compound: CN(C)CC1=CC(=CC=C1)N=C(C2=CC=CC=C2)C3=C(NC4=C3C=CC(=C4)C(=O)N(C)C)O + O=C(c1cc(Cc2n[nH]c(=O)c3ccccc23)ccc1F)N1CCN(C(=O)C2CC2)CC1 [Olaparib] (partner 8 µM)
How it was run: as §1

[10] = compound: CN(C)CC1=CC(=CC=C1)N=C(C2=CC=CC=C2)C3=C(NC4=C3C=CC(=C4)C(=O)N(C)C)O
How it was run: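 For viability, nuclei in each treated well were divided by nuclei in vehicle wells and the median across plates was taken. Lung cancer cell lines in 1536-well plates were pinned with five library-drug doses (not always all listed) spaced by √10, cultured 5 days without medium change, and imaged at 4× after Hoechst staining, with plates passing only at control CV below 25% and at least one doubling.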

Cell Line EBC-1 has a relative viability ([1]; first compound 0.08 µM) of 1.02, a relative viability ([1]; first compound 0.253 µM) of 0.964 and a relative viability ([1]; first compound 0.8 µM) of 1.05. It also gave a relative viability ([1]; first compound 2.53 µM) of 1, a relative viability ([1]; first compound 8 µM) of 1.08 and a relative viability ([2]; first compound 0.08 µM) of 0.441. For the same cell line, the relative viability ([2]; first compound 0.253 µM) was 0.456, the relative viability ([2]; first compound 0.8 µM) was 0.416 and the relative viability ([2]; first compound 2.53 µM) was 0.365. The relative viability ([2]; first compound 8 µM) was 0.318, the relative viability ([3]; first compound 0.08 µM) was 0.0943 and the relative viability ([3]; first compound 0.253 µM) was 0.112. It also gave a relative viability ([3]; first compound 0.8 µM) of 0.0994, a relative viability ([3]; first compound 2.53 µM) of 0.103 and a relative viability ([3]; first compound 8 µM) of 0.107. It also gave a relative viability ([4]; first compound 0.08 µM) of 0.551, a relative viability ([4]; first compound 0.253 µM) of 0.632 and a relative viability ([4]; first compound 0.8 µM) of 0.605. It also gave a relative viability ([4]; first compound 2.53 µM) of 0.737, a relative viability ([4]; first compound 8 µM) of 0.598 and a relative viability ([5]; first compound 0.08 µM) of 0.223. It also gave a relative viability ([5]; first compound 0.253 µM) of 0.248, a relative viability ([5]; first compound 0.8 µM) of 0.227 and a relative viability ([5]; first compound 2.53 µM) of 0.198. The relative viability ([5]; first compound 8 µM) was 0.225, the relative viability ([6]; first compound 0.08 µM) was 0.958 and the relative viability ([6]; first compound 0.253 µM) was 0.891. It also gave a relative viability ([6]; first compound 0.8 µM) of 1.06, a relative viability ([6]; first compound 2.53 µM) of 0.917 and a relative viability ([6]; first compound 8 µM) of 0.816. The relative viability ([7]; first compound 0.08 µM) was 0.459, the relative viability ([7]; first compound 0.253 µM) was 0.411 and the relative viability ([7]; first compound 0.8 µM) was 0.539. For the same cell line, the relative viability ([7]; first compound 2.53 µM) was 0.522, the relative viability ([7]; first compound 8 µM) was 0.518 and the relative viability ([8]; first compound 0.08 µM) was 0.186. It also gave a relative viability ([8]; first compound 0.253 µM) of 0.212, a relative viability ([8]; first compound 0.8 µM) of 0.21 and a relative viability ([8]; first compound 2.53 µM) of 0.184. The relative viability ([8]; first compound 8 µM) was 0.196, the relative viability ([9]; first compound 0.08 µM) was 0.785 and the relative viability ([9]; first compound 0.253 µM) was 0.732. The relative viability ([9]; first compound 0.8 µM) was 0.772, the relative viability ([9]; first compound 2.53 µM) was 0.744 and the relative viability ([9]; first compound 8 µM) was 0.845. For the same cell line, the relative viability ([10]; 0.08 µM) was 1.02, the relative viability ([10]; 0.253 µM) was 0.958 and the relative viability ([10]; 0.8 µM) was 1.08. It also gave a relative viability ([10]; 2.53 µM) of 0.985 and a relative viability ([10]; 8 µM) of 1.1.
